# Where a name gives a salt, the structure may show the parent alone.
# Experiments:
# Histamine H3 receptor [1] = target: T1, Histamine H3 receptor (Cavia porcellus, UniProt Q9JI35); assay: Histamine H3 functional assay, guinea pig ileum (ileal longitudinal muscle, myenteric plexus); design: species or system tissue; conditions: antagonist affinity from rightward shift of R-(α)-methylhistamine E/[A] curves (Schild), typical variance ±0.15 log units; for Kb: read-out: pKb (Guinea pig ileum) (converted)
# T1 sequence (Q9JI35 whole entry): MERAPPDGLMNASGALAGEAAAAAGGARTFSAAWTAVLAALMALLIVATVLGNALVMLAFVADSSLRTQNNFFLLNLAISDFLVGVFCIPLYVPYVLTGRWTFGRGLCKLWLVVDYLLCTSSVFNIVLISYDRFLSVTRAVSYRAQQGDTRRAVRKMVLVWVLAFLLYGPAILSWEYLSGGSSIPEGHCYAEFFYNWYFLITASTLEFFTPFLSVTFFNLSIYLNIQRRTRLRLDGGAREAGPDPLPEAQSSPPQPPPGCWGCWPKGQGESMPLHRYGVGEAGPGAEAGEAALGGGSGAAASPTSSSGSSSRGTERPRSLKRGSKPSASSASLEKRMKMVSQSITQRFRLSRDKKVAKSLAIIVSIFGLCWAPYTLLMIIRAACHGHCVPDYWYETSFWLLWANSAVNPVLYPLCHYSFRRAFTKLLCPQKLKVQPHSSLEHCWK
# How it was run: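 Longitudinal muscle–myenteric plexus strips from male Dunkin-Hartley guinea pigs (250-300 g), Krebs-Henseleit buffer at 37±1° C, field-stimulated at 0.1 Hz, 0.5 msec, supramaximal voltage; isometric recording. Cumulative R-(α)-methylhistamine E/[A] curves as % inhibition of twitch height; antagonist affinity by Schild analysis of rightward shift.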
# Histamine H3 receptor [2] = target: T1, Histamine H3 receptor; assay: Histamine H3 radioligand binding assay, guinea pig cortex ([3H]-R-α-methylhistamine); conditions: guinea pig cortex membranes, competition with 1 nM [3H]-R-α-methylhistamine; for Ki: read-out: pKi (Guinea pig cortex) (converted)
# How it was run: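 Male Dunkin Hartley guinea pig cortical membranes incubated 165 min at 21±3 °C in 20 mM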
Kb (Histamine H3 receptor [1]) [nM],Ki (Histamine H3 receptor [2]) [nM],Structure (SMILES),pKb (Guinea pig ileum) (Histamine H3 receptor [1]),pKi (Guinea pig cortex) (Histamine H3 receptor [2]),pKi (Guinea pig cortex) (Histamine H3 receptor [2]; bis-hydrochloride)
631,63.1,"CNC(=NCCCN1CCCC1)NCc1ccc(Cl)cc1 [Example 64, N-(4-Chlorobenzyl)-N′-methyl-N″-(3-pyrrolidin-1-yl-propyl)-guanidine]",–,–,–
50.1,2.51,"CCC(C)CNC(=N)NCCCCCN1CCCC1 (stereo not drawn) [Example 67, N-(2-Methyl-butyl)-N′-(5-pyrrolidin-1-yl-pentyl)-guanidine bis-hydrochloride]",–,–,–
3.98,5.01,"N=C(N)N(CCCCCCN1CCCC1)Cc1ccc(Cl)cc1 [Example 70, N-(4-Chlorobenzyl)-N-(6-pyrrolidin-1-yl-hexyl)-guanidine bis-hydrochloride]",–,–,–
15.8,1.58,"N=C(N)N(CCCCCCN1CCCC1)Cc1ccccc1 [Example 73, N-Benzyl-N-(6-pyrrolidin-1-yl-hexyl)-guanidine bis-hydrochloride]",–,–,–
12.6,7.94,"N=C(N)N(CCCCCCN1CCCC1)Cc1ccc(Br)cc1 [Example 74, N-(4-Bromobenzyl)-N-(6-pyrrolidin-1-yl-hexyl)-guanidine bis-hydrochloride]",–,–,–
7.94,1.58,"Cc1ccccc1CN(CCCCCCN1CCCC1)C(=N)N [Example 76, N-(2-Methylbenzyl)-N-(6-pyrrolidin-1-yl-hexyl)-guanidine bis-hydrochloride]",–,–,–
31.6,79.4,"N=C(N)N(CCCCCCN1CCCC1)CCC12CC3CC(CC(C3)C1)C2 [Example 78, N-(2-Adamantan-1-yl-ethyl)-N-(6-pyrrolidin-1-yl-hexyl)-guanidine bis-hydrochloride]",–,–,–
1260,126,"O=S(=O)(NCCN1CCCC1)c1ccc2ccccc2c1 [Example 81, N-(2-Pyrrolidin-1-yl-ethyl)-2-naphthalenesulfonamide]",–,–,–
1000,316,"O=S(=O)(NCCCN1CCCC1)c1ccc2ccccc2c1 [Example 82, N-(3-Pyrrolidin-1-yl-propyl)-2-naphthalenesulfonamide]",–,–,–
501,126,"CN1CCC[C@H]1CCCNS(=O)(=O)c1ccc2ccccc2c1 [Example 91, N-(3-(1-Methyl-pyrrolidin-2S-yl)-propyl)-2-naphthalenesulfonamide]",–,–,–
794,794,"CN1CCC[C@H]1CCCNS(=O)(=O)c1ccc(Cl)cc1 [Example 98, N-(3-(1-Methyl-pyrrolidin-2S-yl)-propyl)-(4-chlorophenyl)-sulfonamide]",–,–,–
316,200,CN1CCC[C@H]1CCCNS(=O)(=O)Cc1ccc(Cl)cc1 [Example 99],–,–,–
501,200,"CN1CCC[C@H]1CCCNS(=O)(=O)Cc1ccccc1 [Example 100, N-(3-(1-Methyl-pyrrolidin-2S-yl)-propyl)-phenyl-methanesulfonamide]",–,–,–
316,126,"CN1CCC[C@H]1CCCNS(=O)(=O)CCCc1ccc(Cl)cc1 [Example 103, N-(3-(1-Methyl-pyrrolidin-2S-yl)-propyl)-3-(4-chlorophenyl)-propanesulfonamide]",–,–,–
398,398,"CN1CCCC1CCCCNS(=O)(=O)Cc1ccc(Cl)cc1 (stereo not drawn) [Example 104, N-(4-(1-Methyl-pyrrolidin-2S-yl)-butyl)-(4-chlorophenyl)-methanesulfonamide]",–,–,–
1580,398,"CN1CCC[C@H]1CCCNS(=O)(=O)Nc1ccc(Cl)cc1 [Example 112, N-(4-Chlorophenyl)-N′-(3-(1-methyl-pyrrolidin-2S-yl)-propyl)-sulfamide]",–,–,–
200,100,"CN1CCC[C@H]1CCCNS(=O)(=O)NCc1ccc(Br)cc1 [Example 113, N-(4-Bromobenzyl)-N′-(3-(1-methyl-pyrrolidin-2S-yl)-propyl)-sulfamide]",–,–,–
200,126,"CN1CCCC1CCCCNS(=O)(=O)NCc1ccc(Cl)cc1 (stereo not drawn) [Example 116, N-(4-Chlorobenzyl)-N′-(4-(1-methyl-pyrrolidin-2S-yl)-butyl)-sulfamide]",–,–,–

# The remaining lines, values behind:
Structure (SMILES),Kb (Histamine H3 receptor [1]) [nM],Ki (Histamine H3 receptor [2]) [nM],pKb (Guinea pig ileum) (Histamine H3 receptor [1]),pKi (Guinea pig cortex) (Histamine H3 receptor [2]),pKi (Guinea pig cortex) (Histamine H3 receptor [2]; bis-hydrochloride)
"Cl.Cl.N=C(NCCOCCN1CCCC1)NCC12CC3CC(CC(C3)C1)C2 [Example 59, N-Adamantan-1-yl-methyl-N′-(2-(2-pyrrolidin-1-yl-ethoxy)-ethyl)-guanidine bis-hydrochloride]",–,–,7.0,8.0,–
"Cl.Cl.N=C(NCCCCCN1CCCCC1)NCC12CC3CC(CC(C3)C1)C2 [Example 60, N-Adamantan-1-yl-methyl-N′-(5-piperidin-1-yl-pentyl)-guanidine bis-hydrochloride]",–,–,8.1,8.0,–
"Cl.Cl.N=C(NCCCCCN1CCCCCC1)NCC12CC3CC(CC(C3)C1)C2 [Example 61, N-Adamantan-1-yl-methyl-N′-(5-azepan-1-yl-pentyl)-guanidine bis-hydrochloride]",–,–,7.8,8.1,–
"Cl.Cl.N=C(NCCCCCN1CCCCCCC1)NCC12CC3CC(CC(C3)C1)C2 [Example 62, N-Adamantan-1-yl-methyl-N′-(5-azocan-1-yl-pentyl)-guanidine bis-hydrochloride]",–,–,7.4,7.5,–
"CN1CCN(CCCCCNC(=N)NCC23CC4CC(CC(C4)C2)C3)CC1.Cl.Cl.Cl [Example 63, N-Adamantan-1-yl-methyl-N′-(5-(4-methyl-piperazin-1-yl)-pentyl)-guanidine tris-hydrochloride]",–,–,7.4,7.7,–
"CCCCNC(=N)NCCCCCN1CCCC1 [Example 65, N-Butyl-N′-(5-pyrrolidin-1-yl-pentyl)-guanidine]",79.4,5.01,–,–,–
CC(C)CCNC(=N)NCCCCCN1CCCC1 [Example 66],39.8,2.51,–,–,–
"N=C(N)N(CCCCCN1CCCC1)Cc1ccc(Cl)cc1 [Example 69, N-(4-Chlorobenzyl)-N-(5-pyrrolidin-1-yl-pentyl)-guanidine bis-hydrochloride]",12.6,1,–,–,–
"N=C(N)N(CCCCCCN1CCCCC1)Cc1ccc(Cl)cc1 [Example 72, N-(4-Chlorobenzyl)-N-(6-piperidin-1-yl-hexyl)-guanidine bis-hydrochloride]",3.16,5.01,–,–,–
"C[C@@H](c1ccccc1)N(CCCCCN1CCCC1)C(=N)N [Example 75, N-(1-(S)-Phenyl-ethyl)-N-(5-pyrrolidin-1-yl-pentyl)-guanidine bis-hydrochloride]",126,25.1,–,–,–
"Cl.Cl.N=C(NCCCCCCN1CCCC1)NCC12CC3CC(CC(C3)C1)C2 [Example 77, N-Adamantan-1-yl-methyl-N-(6-pyrrolidin-1-yl-hexyl)-guanidine bis-hydrochloride]",–,–,8.0,–,8.2
"O=S(=O)(NCCCCN1CCCC1)c1ccc2ccccc2c1 [Example 83, N-(4-Pyrrolidin-1-yl-butyl)-2-naphthalenesulfonamide]",631,251,–,–,–
"O=S(=O)(NCCN1CCCCC1)c1ccc2ccccc2c1 [Example 84, N-(2-Piperidin-1-yl-ethyl)-2-naphthalenesulfonamide]",794,501,–,–,–
O=S(=O)(CCCCN1CCCC1)c1ccc2ccccc2c1 [Example 88],1260,631,–,–,–
"CN1CCCC1CCNS(=O)(=O)c1ccc2ccccc2c1 (stereo not drawn) [Example 89, N-(2-(1-Methyl-pyrrolidin-2-yl)-ethyl)-2-naphthalenesulfonamide]",631,100,–,–,–
"CN1CCC[C@H]1CCCNS(=O)(=O)Cc1ccc(Br)cc1 [Example 101, N-(3-(1-Methyl-pyrrolidin-2S-yl)-propyl)-(4-bromophenyl)-methanesulfonamide]",1000,251,–,–,–
"CN1CCC[C@H]1CCCNS(=O)(=O)CCc1ccc(Cl)cc1 [Example 102, N-(3-(1-Methyl-pyrrolidin-2S-yl)-propyl)-2-(4-chlorophenyl)-ethanesulfonamide]",316,63.1,–,–,–
"CN1CCCC1CCCCCNS(=O)(=O)Cc1ccc(Cl)cc1 (stereo not drawn) [Example 105, N-(5-(1-Methyl-pyrrolidin-2S-yl)-pentyl)-(4-chlorophenyl)-methanesulfonamide]",501,398,–,–,–
"O=S(=O)(Cc1ccc(Cl)cc1)NCCCN1CCCC1 [Example 106, N-(3-Pyrrolidin-1-yl-propyl)-(4-chlorophenyl)-methanesulfonamide]",631,1000,–,–,–
"CN1CCC[C@H]1CCCNS(=O)(=O)NCc1ccc(Cl)cc1 [Example 107, N-(4-Chlorobenzyl)-N′-(3-(1-methyl-pyrrolidin-2S-yl)-propyl)-sulfamide]",158,100,–,–,–
"CN1CCC[C@H]1CCCNS(=O)(=O)NCC1CCCCC1 [Example 110, N-Cyclohexyl-methyl-N′-(3-(1-methyl-pyrrolidin-2S-yl)-propyl)-sulfamide]",2510,501,–,–,–
"CN1CCC[C@H]1CCCNS(=O)(=O)NCc1ccc(I)cc1 [Example 114, N-(4-Iodobenzyl)-N′-(3-(1-methyl-pyrrolidin-2S-yl)-propyl)-sulfamide]",100,316,–,–,–
"CN1CCC[C@H]1CCNS(=O)(=O)NCc1ccc(Cl)cc1 [Example 115, N-(4-Chlorobenyl)-N′-(2-(1-methyl-pyrrolidin-2S-yl)-ethyl)-sulfamide]",398,501,–,–,–
CC(C)CN1CCC[C@H]1CCCNS(=O)(=O)NCc1ccc(Cl)cc1 [Example 119],2000,15.8,–,–,–

# Reference: patent US6878736B1, “Histamine H3 receptor ligands” (James Black Foundation Limited, priority 1998, dated 2005)
